Test results as given in US20200288710A1, “SUBSTITUTED SULPHONAMIDES FOR CONTROLLING ANIMAL PESTS” (BAYER CROPSCIENCE AKTIENGESELLSCHAFT, priority 2016, published 2020).

How the values were obtained:
Assay type in all cases: in vivo
Myzus persicae [1] = assay: Myzus persicae spray test (Chinese cabbage leaf discs); details: foliar, 120 h, 500 g/ha, after 5-6 days, read-out: efficacy
Method in brief: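 Chinese cabbage leaf discs infested with all stages of green peach aphid were sprayed with compound formulated in acetone/DMF and emulsifier-containing water. Efficacy in % was scored after 5-6 days, with 100% meaning all aphids killed and 0% none killed.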

Phaedon cochleariae = Phaedon cochleariae spray test; details: foliar, 168 h, Chinese cabbage leaf discs, larvae, after 7 days, read-out: efficacy
Description: Phaedon cochleariae—Spray Test
To produce a suitable preparation of active compound, 1 part by weight of active compound is dissolved using the specified parts by weight of solvent and made up with water containing an emulsifier concentration of 1000 ppm until the desired concentration is attained. To produce further test concentrations, the formulation is diluted with emulsifier-containing water.
After 7 days, the efficacy in % is determined. 100% means that all the beetle larvae have been killed; 0% means that no beetle larvae have been killed.

Myzus persicae [2] = assay: Myzus persicae oral test; details: 120 h, oral uptake, after 5 days, read-out: efficacy
Method in brief: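 Compound dissolved in acetone, diluted in water, then mixed 50:150 μl with IPL41 insect medium (33%+15% sugar). Mixed-population green peach aphids feed through a parafilm seal on the solution; mortality scored as % efficacy after 5 days (100% = all killed).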

Meloidogyne incognita = Meloidogyne incognita test; details: 336 h, lettuce, after 14 days, read-out: nematicidal efficacy (formation of galls)
Method in brief: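 Active compound in acetone, diluted with water, added to sand-filled vessels with M. incognita eggs/larvae and lettuce seeds. After 14 days, efficacy scored by root gall formation: 100% = no galls, 0% = galls equal to untreated control.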

Structure (SMILES)	pest or weed control at 500 g/ha (Myzus persicae [1])	pest or weed control at 500 g/ha (Phaedon cochleariae)	pest or weed control at 20 ppm (Myzus persicae [2])	pest or weed control at 20 ppm (Meloidogyne incognita)	pest or weed control at 4 ppm (Myzus persicae [2]; 4 ppm)
Cc1cccc(Cl)c1S(=O)(=O)NC(=O)c1cn(C)c(-c2ncccc2F)n1 [Example 599]	100%	100%	100%	100%	–
Cc1cccc(C)c1S(=O)(=O)NC(=O)c1cn(C)c(-c2ncccc2Cl)n1 [Example 587]	90%	100%	100%	90%	–
Cc1ccccc1S(=O)(=O)NC(=O)c1cn(C)c(-c2cc(Cl)ccc2Cl)n1 [Example 517]	90%	100%	100%	100%	–
Cc1ccccc1S(=O)(=O)NC(=O)c1cn(C)c(-c2sccc2Cl)n1 [Example 548]	90%	83%	90%	90%	–
Cn1cc(C(=O)NS(=O)(=O)c2cccc3ccccc23)nc1-c1c(F)cccc1F [Example 510]	100%	100%	100%	90%	–
Cc1c(Cl)cccc1S(=O)(=O)NC(=O)c1cn(C)c(-c2c(F)cccc2F)n1 [Example 316]	90%	100%	100%	90%	–
COc1ccc(C)c(S(=O)(=O)NC(=O)c2cn(C)c(-c3ccccc3Cl)n2)c1 [Example 424]	90%	100%	100%	90%	–
CSc1cccc(Cl)c1S(=O)(=O)NC(=O)c1cn(C)c(-c2c(F)cccc2F)n1 [Example 385]	100%	100%	100%	90%	–
Cc1cccc(F)c1S(=O)(=O)NC(=O)c1cn(C)c(-c2c(F)cccc2F)n1 [Example 363]	100%	100%	100%	90%	–
Cn1cc(C(=O)NS(=O)(=O)c2cc(Cl)ccc2Cl)nc1-c1c(F)cccc1F [Example 171]	90%	83%	100%	100%	–
COc1ccc(Br)c(S(=O)(=O)NC(=O)c2cn(C)c(-c3ncccc3Cl)n2)c1 [Example 597]	100%	100%	100%	90%	–
Cn1cc(C(=O)NS(=O)(=O)c2ccc(Br)cc2C(F)(F)F)nc1-c1c(F)cccc1F [Example 449]	100%	100%	100%	100%	–
Cc1cccc(C(F)(F)F)c1S(=O)(=O)NC(=O)c1cn(C)c(-c2c(F)cccc2F)n1 [Example 369]	100%	100%	100%	90%	–
Cn1cc(C(=O)NS(=O)(=O)c2ccc(F)cc2C(F)(F)F)nc1-c1c(F)cccc1F [Example 448]	100%	100%	100%	90%	–
CCc1ccc(Cl)cc1S(=O)(=O)NC(=O)c1cn(C)c(-c2c(F)cccc2F)n1 [Example 279]	90%	100%	100%	100%	–
Cc1cccc(Cl)c1S(=O)(=O)NC(=O)c1cn(C)c(-c2cccc(Cl)c2Cl)n1 [Example 556]	90%	100%	100%	90%	–
Cc1cc(Br)ccc1S(=O)(=O)NC(=O)c1cn(C)c(-c2ccccc2Cl)n1 [Example 282]	90%	100%	100%	100%	–
Cc1ccc(S(=O)(=O)NC(=O)c2cn(C)c(-c3c(F)cccc3F)n2)c(Cl)c1 [Example 450]	100%	100%	90%	100%	–
Cc1ccc(Br)cc1S(=O)(=O)NC(=O)c1cn(C)c(-c2c(F)cccc2F)n1 [Example 398]	90%	100%	100%	90%	–
CCc1cccc(F)c1S(=O)(=O)NC(=O)c1cn(C)c(-c2c(F)cccc2F)n1 [Example 338]	90%	100%	100%	100%	–
CSc1ccccc1S(=O)(=O)NC(=O)c1cn(C)c(-c2ccccc2Cl)n1 [Example 423]	100%	100%	100%	90%	–
Cn1cc(C(=O)NS(=O)(=O)c2cccc(Cl)c2I)nc1-c1c(F)cccc1F [Example 313]	90%	100%	100%	90%	–
Cn1cc(C(=O)NS(=O)(=O)c2cc(Cl)cc(Cl)c2)nc1-c1c(F)cccc1F [Example 188]	90%	100%	100%	100%	–
CCc1ccc(Cl)cc1S(=O)(=O)NC(=O)c1cn(C)c(-c2ccccc2Cl)n1 [Example 280]	90%	100%	100%	90%	–
Cc1cccc(C(F)(F)F)c1S(=O)(=O)NC(=O)c1cn(C)c(-c2ncccc2Cl)n1 [Example 586]	100%	100%	–	90%	100%
Cn1cc(C(=O)NS(=O)(=O)c2ccc(Cl)cc2I)nc1-c1c(F)cccc1F [Example 439]	90%	100%	100%	90%	–
Cc1cc(Cl)ccc1S(=O)(=O)NC(=O)c1cn(C)c(-c2c(F)cccc2F)n1 [Example 445]	100%	100%	90%	100%	–
Cc1ccc(C(F)(F)F)cc1S(=O)(=O)NC(=O)c1cn(C)c(-c2c(F)cccc2F)n1 [Example 399]	100%	100%	100%	90%	–
Cc1cccc(C(F)(F)F)c1S(=O)(=O)NC(=O)c1cn(C)c(-c2cccc(Cl)c2Cl)n1 [Example 561]	90%	100%	100%	100%	–
CCc1ccc(Cl)cc1S(=O)(=O)NC(=O)c1cn(C)c(-c2ncccc2Cl)n1 [Example 583]	100%	100%	100%	90%	–
